Assay results published in patent US20260355165A1, “2,3,4,9-TETRAHYDRO-1H-PYRIDO[3,4-B]INDOLE DERIVATIVES AS ESTROGEN RECEPTOR MODULATORS FOR THE TREATMENT OF CANCER” (Olema Pharmaceuticals, Inc., priority 2022, published 2026).

Target: T1, estrogen receptor (Homo sapiens, UniProt P03372)
T1 construct: endogenous in cells; host or cells: ECC-1 cells
T1 sequence (P03372 1-595): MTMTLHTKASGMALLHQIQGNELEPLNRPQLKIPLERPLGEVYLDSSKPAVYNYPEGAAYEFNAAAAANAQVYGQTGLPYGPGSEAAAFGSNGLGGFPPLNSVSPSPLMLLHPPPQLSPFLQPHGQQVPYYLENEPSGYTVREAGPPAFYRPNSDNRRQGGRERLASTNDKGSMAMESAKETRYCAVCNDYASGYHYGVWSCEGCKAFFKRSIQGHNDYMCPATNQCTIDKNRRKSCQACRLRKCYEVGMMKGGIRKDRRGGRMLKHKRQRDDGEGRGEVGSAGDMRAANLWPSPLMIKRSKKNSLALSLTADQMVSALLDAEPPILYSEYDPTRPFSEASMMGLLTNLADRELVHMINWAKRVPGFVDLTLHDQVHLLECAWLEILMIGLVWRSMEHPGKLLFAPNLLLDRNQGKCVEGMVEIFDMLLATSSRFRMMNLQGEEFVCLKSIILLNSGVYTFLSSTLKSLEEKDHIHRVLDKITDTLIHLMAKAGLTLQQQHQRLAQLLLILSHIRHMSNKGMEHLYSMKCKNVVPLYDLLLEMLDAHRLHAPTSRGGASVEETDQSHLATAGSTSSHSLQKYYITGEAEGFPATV
Assay: AP assay (alkaline phosphatase activity in ECC-1 cells), agonist mode (absence of E2) and antagonist mode (presence of 500 pM E2)
Assay type: cell-based
Conditions: 3 days, AP activity normalized to 500 pM E2 alone, agonist and antagonist mode combined
Experimental: ECC-1 cells were trypsinized and resuspended in hormone-depleted media and plated at a density of 15 k cells per well into a 96-well plate for at least 4 hours. Cells were treated with test compounds in the absence of E2 (for agonist mode) or in the presence of 500 pM E2 (for antagonist mode) for 3 days and plates were subsequently frozen at −80 °C. Thawed plates were incubated with a chromogenic substrate of AP, p-nitrophenyl phosphate (Thermo Fisher Scientific), for 40 minutes at 42 °C, and absorbances were read at 405 nm. AP activity was normalized to the activity of 500 pM E2 alone.
The compound numbers correspond to the compound numbers of Table 1 and 2. Compounds having an activity designated as “+” provided estrogen receptor agonism having (i) at least 80% increase in the E2-normalized signal in the AP assay (agonist mode) and (ii) no more than 80% reduction in the E2-normalized signal in the AP assay (antagonist mode). Compounds having an activity designated as “++” provided estrogen receptor antagonism having (i) between 10% and 80% increase in the E2-normalized signal in the AP assay (agonist mode) and (ii) between 10% and 80% reduction in the E2-normalized signal in the AP assay (antagonist mode).

Compound | Activity (estrogen receptor modulation, e.g., agonism and antagonism)
C[C@@H]1Cc2c([nH]c3ccccc23)[C@@H](c2c[nH]c3cc(CN(C)CCCF)ccc23)N1CC(C)(C)F [Compound I-9, 3-fluoro-N-[[3-[(1R,3R)-2-(2-fluoro-2-methyl-propyl)-3-methyl-1,3,4,9-tetrahydropyrido[3,4-b]indol-1-yl]-1H-indol-6-yl]methyl]-N-methyl-propan-1-amine] | + (estrogen receptor agonism having (i) at least 80% increase in the E2-normalized signal in the AP assay (agonist mode) and (ii) no more than 80% reduction in the E2-normalized signal in the AP assay (antagonist mode))
C[C@@H]1Cc2c([nH]c3ccccc23)[C@@H](c2n[nH]c3cc(CN4CC(CF)C4)ccc23)N1CC(C)(C)F [Compound I-10, (1S,3R)-1-[6-[[3-(fluoromethyl)azetidin-1-yl]methyl]-1H-indazol-3-yl]-2-(2-fluoro-2-methyl-propyl)-3-methyl-1,3,4,9-tetrahydropyrido[3,4-b]indole] | +++ (estrogen receptor antagonism (i) with pIC50 greater than 7.5 and at least a 10% reduction in the E2-normalized signal in the AP assay (antagonist mode); and (ii) no more than 10% increase in E2-normalized signal in the AP assay (agonist mode))
CC1CN(Cc2ccc3c([C@@H]4c5[nH]c6ccccc6c5C[C@@H](C)N4CC(C)(C)F)n[nH]c3c2)C1 [Compound I-11, (1S,3R)-2-(2-fluoro-2-methyl-propyl)-3-methyl-1-[6-[(3-methylazetidin-1-yl)methyl]-1H-indazol-3-yl]-1,3,4,9-tetrahydropyrido[3,4-b]indole] | ++ (estrogen receptor antagonism having (i) between 10% and 80% increase in the E2-normalized signal in the AP assay (agonist mode) and (ii) between 10% and 80% reduction in the E2-normalized signal in the AP assay (antagonist mode))
C[C@@H]1Cc2c([nH]c3ccccc23)[C@@H](c2n[nH]c3cc(CN(C)CCCF)ccc23)N1CC(C)(C)F [Compound I-12, 3-fluoro-N-[[3-[(1S,3R)-2-(2-fluoro-2-methyl-propyl)-3-methyl-1,3,4,9-tetrahydropyrido[3,4-b]indol-1-yl]-1H-indazol-6-yl]methyl]-N-methyl-propan-1-amine] | + (estrogen receptor agonism having (i) at least 80% increase in the E2-normalized signal in the AP assay (agonist mode) and (ii) no more than 80% reduction in the E2-normalized signal in the AP assay (antagonist mode))
CCCN(C)Cc1ccc2c([C@@H]3c4[nH]c5ccccc5c4C[C@@H](C)N3CC(C)(C)F)n[nH]c2c1 [Compound I-13, N-[[3-[(1S,3R)-2-(2-fluoro-2-methyl-propyl)-3-methyl-1,3,4,9-tetrahydropyrido[3,4-b]indol-1-yl]-1H-indazol-6-yl]methyl]-N-methyl-propan-1-amine] | + (estrogen receptor agonism having (i) at least 80% increase in the E2-normalized signal in the AP assay (agonist mode) and (ii) no more than 80% reduction in the E2-normalized signal in the AP assay (antagonist mode))
C[C@@H]1Cc2c([nH]c3ccccc23)[C@@H](c2n[nH]c3cc(CNCCCF)ccc23)N1CC(C)(C)F [Compound I-14, 3-fluoro-N-[[3-[(1S,3R)-2-(2-fluoro-2-methyl-propyl)-3-methyl-1,3,4,9-tetrahydropyrido[3,4-b]indol-1-yl]-1H-indazol-6-yl]methyl]propan-1-amine] | + (estrogen receptor agonism having (i) at least 80% increase in the E2-normalized signal in the AP assay (agonist mode) and (ii) no more than 80% reduction in the E2-normalized signal in the AP assay (antagonist mode))
C[C@@H]1Cc2c([nH]c3ccccc23)[C@@H](c2c[nH]c3cc(CN4CC(CF)C4)ccc23)N1CC(F)(F)CO [Compound I-15, 2,2-difluoro-3-[(1R,3R)-1-[6-[[3-(fluoromethyl)azetidin-1-yl]methyl]-1H-indol-3-yl]-3-methyl-1,3,4,9-tetrahydropyrido[3,4-b]indol-2-yl]propan-1-ol] | ++ (estrogen receptor antagonism having (i) between 10% and 80% increase in the E2-normalized signal in the AP assay (agonist mode) and (ii) between 10% and 80% reduction in the E2-normalized signal in the AP assay (antagonist mode))
C[C@@H]1Cc2c([nH]c3ccccc23)[C@@H](c2n[nH]c3cc(CN4CC(CF)C4)ccc23)N1CC(F)(F)CO [Compound I-16, 2,2-difluoro-3-[(1S,3R)-1-[6-[[3-(fluoromethyl)azetidin-1-yl]methyl]-1H-indazol-3-yl]-3-methyl-1,3,4,9-tetrahydropyrido[3,4-b]indol-2-yl]propan-1-ol] | ++ (estrogen receptor antagonism having (i) between 10% and 80% increase in the E2-normalized signal in the AP assay (agonist mode) and (ii) between 10% and 80% reduction in the E2-normalized signal in the AP assay (antagonist mode))
CC1CN(Cc2ccc3c([C@@H]4c5[nH]c6ccccc6c5C[C@@H](C)N4CC(F)(F)CO)n[nH]c3c2)C1 [Compound I-17, 2,2-difluoro-3-((1S,3R)-3-methyl-1-(6-((3-methylazetidin-1-yl)methyl)-1H-indazol-3-yl)-1,3,4,9-tetrahydro-2H-pyrido[3,4-b]indol-2-yl)propan-1-ol] | +++ (estrogen receptor antagonism (i) with pIC50 greater than 7.5 and at least a 10% reduction in the E2-normalized signal in the AP assay (antagonist mode); and (ii) no more than 10% increase in E2-normalized signal in the AP assay (agonist mode))
C[C@@H]1Cc2c([nH]c3ccccc23)[C@@H](c2n[nH]c3cc(CN4CC[C@@H](CF)C4)ccc23)N1CC(C)(C)F [Compound I-24, (1S,3R)-2-(2-fluoro-2-methyl-propyl)-1-[6-[[(3R)-3-(fluoromethyl)pyrrolidin-1-yl]methyl]-1H-indazol-3-yl]-3-methyl-1,3,4,9-tetrahydropyrido[3,4-b]indole] | + (estrogen receptor agonism having (i) at least 80% increase in the E2-normalized signal in the AP assay (agonist mode) and (ii) no more than 80% reduction in the E2-normalized signal in the AP assay (antagonist mode))
C[C@@H]1Cc2c([nH]c3ccccc23)[C@@H](c2c[nH]c3c(F)c(CN4CC(CF)C4)ccc23)N1CC(C)(C)F [Compound I-29, (1R,3R)-1-[7-fluoro-6-[[3-(fluoromethyl)azetidin-1-yl]methyl]-1H-indol-3-yl]-2-(2-fluoro-2-methyl-propyl)-3-methyl-1,3,4,9-tetrahydropyrido[3,4-b]indole] | ++ (estrogen receptor antagonism having (i) between 10% and 80% increase in the E2-normalized signal in the AP assay (agonist mode) and (ii) between 10% and 80% reduction in the E2-normalized signal in the AP assay (antagonist mode))
C[C@@H]1Cc2c([nH]c3ccccc23)[C@@H](c2c[nH]c3cc(CC4CN(C)C4)ccc23)N1CC(C)(C)F [Compound I-30, (1R,3R)-2-(2-fluoro-2-methyl-propyl)-3-methyl-1-[6-[(1-methylazetidin-3-yl)methyl]-1H-indol-3-yl]-1,3,4,9-tetrahydropyrido[3,4-b]indole] | + (estrogen receptor agonism having (i) at least 80% increase in the E2-normalized signal in the AP assay (agonist mode) and (ii) no more than 80% reduction in the E2-normalized signal in the AP assay (antagonist mode))
